Laboratory results as given in PubChem BioAssay AID2060883 (Molecular Pharmacology Branch, DTP, NCI, 2025).
One block for each compound: values may come before it.

Test system: 843782-103-R-J1-PDC complex spheroid viability
Assay: Anticancer human tumor 843782-103-R-J1-PDC patient-derived lung adenocarcinoma cell line growth inhibition [RAS]
Conditions: for IC50: curve of first compound; for viability, T/C: stronger effect = lower value
Outline: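 Tumour cells grown as complex spheroids with HUVEC endothelial cells and mesenchymal stem cells, treated with RAS pathway inhibitor combinations. Each agent spans half-log steps from near clinical Cmax, or 10 microM where Cmax is unknown.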

[1] = second compound 0.00316 µM, first compound 0.0316 µM
[2] = second compound 0.00316 µM, first compound 0.1 µM
[3] = second compound 0.00316 µM, first compound 0.316 µM
[4] = second compound 0.00316 µM, first compound 1 µM
[5] = second compound 0.00316 µM, first compound 3.16 µM
[6] = second compound 0.00316 µM, first compound 10 µM
[7] = second compound 0.01 µM, first compound 0.0316 µM
[8] = second compound 0.01 µM, first compound 0.1 µM
[9] = second compound 0.01 µM, first compound 0.316 µM
[10] = second compound 0.01 µM, first compound 1 µM
[11] = second compound 0.01 µM, first compound 3.16 µM
[12] = second compound 0.01 µM, first compound 10 µM
[13] = second compound 0.0316 µM, first compound 0.0316 µM
[14] = second compound 0.0316 µM, first compound 0.1 µM
[15] = second compound 0.0316 µM, first compound 0.316 µM
[16] = second compound 0.0316 µM, first compound 1 µM
[17] = second compound 0.0316 µM, first compound 3.16 µM
[18] = second compound 0.0316 µM, first compound 10 µM
[19] = second compound 0.1 µM, first compound 0.0316 µM
[20] = second compound 0.1 µM, first compound 0.1 µM
[21] = second compound 0.1 µM, first compound 0.316 µM
[22] = second compound 0.1 µM, first compound 1 µM
[23] = second compound 0.1 µM, first compound 3.16 µM
[24] = second compound 0.1 µM, first compound 10 µM
[25] = second compound 0.316 µM, first compound 0.0316 µM
[26] = second compound 0.316 µM, first compound 0.1 µM
[27] = second compound 0.316 µM, first compound 0.316 µM
[28] = second compound 0.316 µM, first compound 1 µM
[29] = second compound 0.316 µM, first compound 3.16 µM
[30] = second compound 0.316 µM, first compound 10 µM
[31] = second compound 1 µM, first compound 0.0316 µM
[32] = second compound 1 µM, first compound 0.1 µM
[33] = second compound 1 µM, first compound 0.316 µM
[34] = second compound 1 µM, first compound 1 µM
[35] = second compound 1 µM, first compound 3.16 µM
[36] = second compound 1 µM, first compound 10 µM
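Further: viability read after seven days of compound exposure.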

- IC50 (second compound 0.00316 µM): 1420 nM
- IC50 (second compound 0.01 µM): 1500 nM
- IC50 (second compound 0.0316 µM): 1420 nM
- IC50 (second compound 0.1 µM): 1480 nM
- IC50 (second compound 0.316 µM): 1420 nM
- IC50 (second compound 1 µM): 1630 nM
SMILES: CCC(CC)c1cc(NC2CCC(N)C2)n2nccc2n1 (centres undefined) + C=CC(=O)N1CCN(c2nc(OCC3CCCN3C)nc3c(F)c(-c4nc(N)cc(C)c4C(F)(F)F)c(Cl)cc23)C(C)C1
- viability, T/C [1]: 99.4%
- viability, T/C [2]: 87.9%
- viability, T/C [3]: 91.9%
- viability, T/C [4]: 71.3%
- viability, T/C [5]: 1.31%
- viability, T/C [6]: 0.48%
- viability, T/C [7]: 94.5%
- viability, T/C [8]: 88.3%
- viability, T/C [9]: 84.7%
- viability, T/C [10]: 76.2%
- viability, T/C [11]: 1.43%
- viability, T/C [12]: 0.54%
- viability, T/C [13]: 91.6%
- viability, T/C [14]: 88.5%
- viability, T/C [15]: 83.3%
- viability, T/C [16]: 71.2%
- viability, T/C [17]: 1.09%
- viability, T/C [18]: 0.49%
- viability, T/C [19]: 79.9%
- viability, T/C [20]: 87.6%
- viability, T/C [21]: 90.6%
- viability, T/C [22]: 75.3%
- viability, T/C [23]: 1.17%
- viability, T/C [24]: 0.4%
- viability, T/C [25]: 91.7%
- viability, T/C [26]: 84.8%
- viability, T/C [27]: 88.6%
- viability, T/C [28]: 71%
- viability, T/C [29]: 1.54%
- viability, T/C [30]: 0.46%
- viability, T/C [31]: 88.4%
- viability, T/C [32]: 87.1%
- viability, T/C [33]: 88.7%
- viability, T/C [34]: 86.1%
- viability, T/C [35]: 0.8%
- viability, T/C [36]: 0.59%

- IC50 (second compound 0.00316 µM): 211 nM
- IC50 (second compound 0.01 µM): 385 nM
- IC50 (second compound 0.0316 µM): 200 nM
- IC50 (second compound 0.1 µM): 311 nM
- IC50 (second compound 0.316 µM): 277 nM
- IC50 (second compound 1 µM): 313 nM
SMILES: Cc1nc(N2CCC3(CC2)COC(C)C3N)c(CO)nc1Sc1ccnc(N)c1Cl (centres undefined) + C=CC(=O)N1CCN(c2nc(OCC3CCCN3C)nc3c(F)c(-c4nc(N)cc(C)c4C(F)(F)F)c(Cl)cc23)C(C)C1
- viability, T/C [1]: 88.9%
- viability, T/C [2]: 58.6%
- viability, T/C [3]: 47.4%
- viability, T/C [4]: 32.8%
- viability, T/C [5]: 32.5%
- viability, T/C [6]: 27.2%
- viability, T/C [7]: 79.5%
- viability, T/C [8]: 66.8%
- viability, T/C [9]: 51.4%
- viability, T/C [10]: 37.4%
- viability, T/C [11]: 35.6%
- viability, T/C [12]: 22.6%
- viability, T/C [13]: 77.7%
- viability, T/C [14]: 57.6%
- viability, T/C [15]: 45.8%
- viability, T/C [16]: 36.2%
- viability, T/C [17]: 30.5%
- viability, T/C [18]: 32.1%
- viability, T/C [19]: 70%
- viability, T/C [20]: 61.4%
- viability, T/C [21]: 51.5%
- viability, T/C [22]: 35%
- viability, T/C [23]: 35.1%
- viability, T/C [24]: 27.1%
- viability, T/C [25]: 85.7%
- viability, T/C [26]: 67%
- viability, T/C [27]: 48%
- viability, T/C [28]: 34.2%
- viability, T/C [29]: 35.5%
- viability, T/C [30]: 26.9%
- viability, T/C [31]: 80.6%
- viability, T/C [32]: 64.3%
- viability, T/C [33]: 49.7%
- viability, T/C [34]: 40.2%
- viability, T/C [35]: 31.1%
- viability, T/C [36]: 29.7%
